Values after ≈ are worked out from the molar mass of the structure shown. “Also recorded” adds a separate entry of the source.
Columns and labels:
[1] = target: ATP binding sites of Pyk2 (Homo sapiens, UniProt Q14289); conditions: cited from earlier work
[2] = system: apoptosis; conditions: reference 21; cited from earlier work
[3] = target: ATP binding sites of FAK (Homo sapiens, UniProt Q05397); conditions: cited from earlier work
[4] = 4-HPR release from PLGA implants, tumor and sera levels (UPLC/UV); format: in vivo, nude mice
Source text: Determination of 4-HPR tumor levels entailed recording tumor wet mass, addition of internal standard (acitretin) and RIPA lysis buffer, followed by homogenization, addition of acetonitrile and centrifugation. Acetretin percent recovery was compared to a RIPA buffer/acetonitrile extraction control solution spiked with equivalent amount of acetretin and 4-HPR. Sera preparation entailed addition of acetretin and acetonitrile, sonication, followed by centrifugation.
SCC2095sc cells [10^6 cells suspended in 100 μl Matrigel (Corning Life Sciences, Corning, N.Y.)] were subcutaneously injected in the flanks of 6 week old male nude mice (n=6 per treatment group). Tumor measurements were recorded daily with calipers (greatest length and greatest width) and final tumor volumes calculated via tumor volume V=(length×width)×½. Treatment groups consisted of: 1) control (PBS injections)+blank (no drug) PLGA implants, 2) 2-ME (1 μg/100 μl PBS, b.i.d.)+blank PLGA implant, 3) 4-HPR releasing PLGA implant+PBS injections, 4) TOC q.d. (0.3 μg/100 μl PBS)+PLGA blank implant, 5) 2-ME (1 μg/100 μl PBS, b.i.d.)+4-HPR releasing PLGA implant, 6) 2-ME (1 μg/100 μl PBS, b.i.d.)+TOC q.d. (0.3 μg/100 μl PBS)+blank PLGA implant, 7) TOC q.d. (0.3 μg/100 μl PBS)+4-HPR releasing PLGA implant, 8) 2-ME (1 μg/100 μl PBS, b.i.d.)+TOC q.d. (0.3 μg/100 μl PBS)+4-HPR releasing PLGA implant. By day 14 post injection, all mice had measurable tumors and treatment began on day 15. […] Pretreatment mean tumor volumes therefore varied among treatment groups. PLGA implants (via trocar) and injections were placed in the center of the tumor. At day 28 post OSCC xenograft placement final tumor measurements were obtained, the mice were euthanized and OSCC tumors along with lung, liver and sera were harvested for pharmacokinetic, histologic and IHC analyses (Ki-67, cleaved caspase-3 and involucrin). Image analyses of the nuclear stains (Ki-67 and cleaved caspase 3) were conducted using Image-Pro Plus 6.2 software (Media Cybernetics, Rockville, Md.).

[5] = Fenretinide solubility; format: physicochemical
[6] = system: JSCC1 cells; experiment: Tumorsphere formation and retention of proliferative capacity; format: cell-based, human
Procedure: JSCC1 cells were seeded at density of 5×10^5 cells in Advanced DMEM+5% FBS+1× GlutaMAX Supplement in Ultra-Low Attachment surface T-25 flasks with DMSO control (0.05%) and 5 μM 4-HPR treatment. Cell suspension cultures were treated for 3 days with fresh treatment every 24 h. While control cultures formed tumorspheres by 24 h, 4-HPR treated cellular interactions were limited to small cell aggregates. (Image scale at 100×.)
Following the treatment described in FIG. 4A above, the JSCC1 control and 4-HPR treated cells were returned to standard tissue culture flasks for seven days in 4-HPR free complete medium (Advanced DMEM+5% FBS+1× GlutaMAX Supplement). […] (Image scale 100×.)
5×10^5 JSCC1 cells (tumorsphere-formation competent unlike JSCC2 and JSCC3 cells) were plated in complete medium with either vehicle control (0.01% DMSO) or 5 μM 4-HPR in Corning Ultra-Low attachment tissue culture flasks (Sigma-Aldrich, St. Louis, Mo.) Suspension cultures received fresh medium and treatment q d for 7 days, with daily images capture via the Nikon DS-Ri+NIS Element. After 7 days, cells and medium were harvested, centrifuged, and cells replated in standard culture flasks containing complete medium. Images were obtained daily and cells harvested after 7 days in culture. Cell number (hemocytometer counts) and viability (trypan blue exclusion) were obtained.

[7] = JSCC1 cells pretreated with 5 μM, 7 days in 4-HPR free complete medium

Chain of ATP binding sites of FAK (Q05397 whole entry): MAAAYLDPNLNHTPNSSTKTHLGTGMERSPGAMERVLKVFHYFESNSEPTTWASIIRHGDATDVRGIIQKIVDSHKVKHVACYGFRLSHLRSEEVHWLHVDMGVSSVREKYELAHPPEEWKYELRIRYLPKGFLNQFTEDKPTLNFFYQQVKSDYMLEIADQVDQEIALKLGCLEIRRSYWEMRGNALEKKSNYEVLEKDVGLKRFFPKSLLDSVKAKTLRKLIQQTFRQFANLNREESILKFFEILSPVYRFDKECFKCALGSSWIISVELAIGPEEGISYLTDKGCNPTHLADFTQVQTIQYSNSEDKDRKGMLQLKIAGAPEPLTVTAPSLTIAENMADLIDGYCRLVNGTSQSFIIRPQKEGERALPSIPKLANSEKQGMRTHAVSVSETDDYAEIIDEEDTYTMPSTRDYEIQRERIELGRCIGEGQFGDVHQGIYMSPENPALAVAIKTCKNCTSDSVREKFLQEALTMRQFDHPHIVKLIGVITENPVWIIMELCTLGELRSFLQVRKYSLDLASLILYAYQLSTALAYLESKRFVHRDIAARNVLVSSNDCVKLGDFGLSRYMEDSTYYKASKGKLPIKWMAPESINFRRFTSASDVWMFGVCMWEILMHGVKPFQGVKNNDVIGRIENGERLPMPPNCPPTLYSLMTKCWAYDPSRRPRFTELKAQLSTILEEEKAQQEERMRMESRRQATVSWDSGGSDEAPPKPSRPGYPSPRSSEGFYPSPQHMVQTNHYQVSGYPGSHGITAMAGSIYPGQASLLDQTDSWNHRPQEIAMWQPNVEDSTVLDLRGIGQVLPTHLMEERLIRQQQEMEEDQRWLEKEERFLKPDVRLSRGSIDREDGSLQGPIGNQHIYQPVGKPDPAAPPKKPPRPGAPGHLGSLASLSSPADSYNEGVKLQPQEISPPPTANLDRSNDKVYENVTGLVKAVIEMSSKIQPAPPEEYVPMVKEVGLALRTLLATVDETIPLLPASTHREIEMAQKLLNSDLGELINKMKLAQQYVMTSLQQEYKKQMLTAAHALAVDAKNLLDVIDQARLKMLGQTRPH
Chain of ATP binding sites of Pyk2 (Q14289 whole entry): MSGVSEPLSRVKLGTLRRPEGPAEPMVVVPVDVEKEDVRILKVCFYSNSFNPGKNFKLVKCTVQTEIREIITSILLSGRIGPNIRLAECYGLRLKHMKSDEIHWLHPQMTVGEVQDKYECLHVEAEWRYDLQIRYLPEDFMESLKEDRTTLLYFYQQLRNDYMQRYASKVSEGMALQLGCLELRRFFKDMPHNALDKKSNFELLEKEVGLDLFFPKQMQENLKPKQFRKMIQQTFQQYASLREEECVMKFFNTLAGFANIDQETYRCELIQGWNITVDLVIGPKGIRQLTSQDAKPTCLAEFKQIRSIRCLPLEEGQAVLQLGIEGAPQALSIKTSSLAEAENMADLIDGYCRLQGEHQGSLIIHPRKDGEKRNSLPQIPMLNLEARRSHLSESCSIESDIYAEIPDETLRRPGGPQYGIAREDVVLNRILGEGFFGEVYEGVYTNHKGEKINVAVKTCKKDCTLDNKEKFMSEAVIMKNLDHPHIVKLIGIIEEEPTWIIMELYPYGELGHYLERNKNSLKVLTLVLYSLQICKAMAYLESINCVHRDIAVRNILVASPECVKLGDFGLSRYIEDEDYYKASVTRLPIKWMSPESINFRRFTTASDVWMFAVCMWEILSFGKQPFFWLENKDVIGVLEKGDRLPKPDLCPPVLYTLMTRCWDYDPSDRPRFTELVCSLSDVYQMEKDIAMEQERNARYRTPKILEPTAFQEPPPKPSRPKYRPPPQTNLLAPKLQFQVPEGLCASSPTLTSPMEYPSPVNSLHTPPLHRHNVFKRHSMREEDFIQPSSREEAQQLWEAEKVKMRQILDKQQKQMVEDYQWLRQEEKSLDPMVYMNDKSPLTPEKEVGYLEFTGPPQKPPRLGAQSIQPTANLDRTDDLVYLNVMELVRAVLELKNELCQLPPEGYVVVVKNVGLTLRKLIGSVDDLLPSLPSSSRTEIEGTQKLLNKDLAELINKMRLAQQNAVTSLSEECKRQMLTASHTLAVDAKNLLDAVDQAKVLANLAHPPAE

detectable levels in the sera ([4]; 4-HPR or its metabolites, any animals): absence of any detectable levels
concentration at 28 days post xenograft placement (treatment began on day 15) ([4]; male, nude, mouse, serum, all mice that received PLGA implants, below LLOQ): < 50 ng/mL
water solubility [5]: below HPLC detection limit
solubility ([5]; PBS+0.084% Tween 80, same as in bovine serum): 21 µg/mL (≈ 53.6 µM)
Structure (SMILES): CC1=C(/C=C/C(C)=C/C=C/C(C)=C/C(=O)Nc2ccc(O)cc2)C(C)(C)CCC1 [4-HPR, 4-hydroxy(phenyl)retinamide]
binding to ATP binding site [1]: binds with high affinity
apoptosis-inducing concentration [2]: 10 µM
binding to ATP binding site [3]: binds with high affinity
reattachment and viability after re-plating in standard flasks [6, 7]: failed to reattach; also recorded: failed to reattach and were uniformly non-vital
trypan blue uptake after re-plating [6, 7]: 100%
tumorsphere formation ([6]; JSCC1 cells, 5 μM, low attachment flasks): inhibits tumorsphere formation
anoikis in tumorsphere-competent cells ([6]; discussion): induced anoikis

Source: patent US11484591B2, “Chemoprevention using controlled-release formulations of anti-interleukin 6 agents, synthetic vitamin A analogues or metabolites, and estradiol metabolites” (OHIO STATE INNOVATION FOUNDATION, priority 2016, dated 2022)
